The source made the active and inactive calls. The rule behind the calls is not given here.
Tested on: GENE-TOX genotoxicity assays, various organisms and cells
Experiment: GENE-TOX mutagenicity studies
Settings: for call: Assay Type: In vivo carcinogenicity studies
[1] = Species/Cell Type: Saccharomyces cerevisiae, Assay Type: Reverse gene mutation, Assay Code: YERT, Evaluation Type: Evaluation A (Pre-1980)
[2] = Species/Cell Type: Nonhuman, Assay Type: Sister-chromatid exchange (SCE) in vitro, Assay Code: SC2+D, Dose Response: With dose response, Evaluation Type: Evaluation B (Post-1980)
[3] = Species/Cell Type: Bacillus subtilis (H17 vs M45), Assay Type: Rec-assay, spot test, DNA effects (bacterial DNA repair), Assay Code: REW+, Evaluation Type: Evaluation A (Pre-1980)
[4] = Species/Cell Type: Human lymphocytes, Assay Type: Sister-chromatid exchange (SCE) in vivo, Assay Code: SCY+, Evaluation Type: Evaluation B (Post-1980)
[5] = Species/Cell Type: Drosophila melanogaster, Assay Type: Sex-linked recessive lethal gene mutation, Assay Code: SRL+, Evaluation Type: Evaluation A (Pre-1980)
[6] = Species/Cell Type: Saccharomyces cerevisiae, Assay Type: Mitotic recombination or gene conversion, Assay Code: YEC+, Evaluation Type: Evaluation A (Pre-1980)
[7] = Species/Cell Type: Salmonella typhimurium (one or more of the five standard strains: TA98, TA100, TA1535, TA1537, and TA1538), Assay Type: Histidine reverse gene mutation, Ames assay, Assay Code: SAL+*, Activation: With metabolic activation, Evaluation Type: Evaluation A (Pre-1980)
[8] = Species/Cell Type: Salmonella typhimurium (one or more of the five standard strains: TA98, TA100, TA1535, TA1537, and TA1538), Assay Type: Histidine reverse gene mutation, Ames assay, Assay Code: SAL+, Evaluation Type: Evaluation A (Pre-1980)
[9] = Species/Cell Type: Chinese hamster ovary (CHO) cells, Assay Type: Forward gene mutation at the HPRT locus, Assay Code: CHO+, Evaluation Type: Evaluation B (Post-1980)
[10] = Species/Cell Type: Escherichia coli polA (W3119 vs P3478), Assay Type: Rec-assay, DNA effects (bacterial DNA repair), Assay Code: RE1+, Evaluation Type: Evaluation A (Pre-1980)

**Q.** With `NNC(=O)COc1ccc(Br)cc1CN1CCOCC1` as the compound, how does the mutagenic call [1] read?
**A.** no conclusion

**Q.** `COc1ccc(/C=N/NC(=O)COc2ccc(Br)cc2CN(C)C)cc1` was tested. Which mutagenic call [1] did it give?
**A.** no conclusion

**Q.** Which mutagenic call [2] does the source give for `C1=CC[C@@H](c2cccnc2)NC1` here?
**A.** active; positive

**Q.** Which results are given for `CCC(=O)Nc1ccc(Cl)c(Cl)c1`?
**A.** mutagenic call (Species/Cell Type: Aspergillus nidulans, Assay Type: Forward gene mutation, Assay Code: ASF-, Evaluation Type: Evaluation A (Pre-1980)): inactive; negative; mutagenic call [3]: active; positive; mutagenic call (Species/Cell Type: Escherichia coli polA (W3119 vs P3478), Assay Type: Rec-assay, DNA effects (bacterial DNA repair), Assay Code: RE1-, Evaluation Type: Evaluation A (Pre-1980)): inactive; negative; mutagenic call (Species/Cell Type: Human diploid fibroblasts, Assay Type: Unscheduled DNA synthesis (UDS) in vitro, DNA effects, Assay Code: UDH-, Evaluation Type: Evaluation A (Pre-1980)): inactive; negative; mutagenic call (Species/Cell Type: Saccharomyces cerevisiae, Assay Type: Mitotic recombination or gene conversion, Assay Code: YEH-, Evaluation Type: Evaluation A (Pre-1980)): inactive; negative; mutagenic call (Species/Cell Type: Salmonella typhimurium (one or more of the five standard strains: TA98, TA100, TA1535, TA1537, and TA1538), Assay Type: Histidine reverse gene mutation, Ames assay, Assay Code: SAL-, Evaluation Type: Evaluation A (Pre-1980)): inactive; negative

**Q.** Which mutagenic call [4] does the source give for `CC(C)Cc1ccc(C(C)C(=O)O)cc1` (stereo unspecified) here?
**A.** active; positive

**Q.** Which results are given for `CC1(C)O[C@@H]1COc1c2occc2cc2ccc(=O)oc12`?
**A.** mutagenic call (Species/Cell Type: Human lymphocytes, Assay Type: Sister-chromatid exchange (SCE) in vitro, Assay Code: SCL+D, Dose Response: With dose response, Evaluation Type: Evaluation B (Post-1980)): active; positive; mutagenic call (Species/Cell Type: Human, Assay Type: Sister-chromatid exchange (SCE) in vitro, Assay Code: SC1+D, Dose Response: With dose response, Evaluation Type: Evaluation B (Post-1980)): active; positive

**Q.** Which results are given for `CCOS(=O)(=O)CCCS(=O)(=O)OCC`?
**A.** mutagenic call (Species/Cell Type: Arabidopsis species, Assay Type: Gene mutation, Assay Code: ARM+D, Dose Response: With dose response, Evaluation Type: Evaluation A (Pre-1980)): active; positive; mutagenic call (Species/Cell Type: Hordeum vulgare (barley), Assay Type: Chromosome aberrations, Assay Code: HOC+D, Dose Response: With dose response, Evaluation Type: Evaluation A (Pre-1980)): active; positive

**Q.** `O=NN(CCCl)C(=O)NCCCCCCNC(=O)N(CCCl)N=O` was tested. Which mutagenic call [5] did it give?
**A.** active; positive

**Q.** And the mutagenic call [6]?
**A.** active; positive

**Q.** Which mutagenic call (Species/Cell Type: Mammalian polychromatic erythrocytes, Assay Type: Micronucleus test, chromosome aberrations, Assay Code: MNTT, Evaluation Type: Evaluation A (Pre-1980)) does the source give for `CC(C)[N+](=O)[O-]` here?
**A.** no conclusion

**Q.** What about the call (Species/Cell Type: Nonhuman, Assay Code: CCG+, Evaluation Type: Evaluation A (Pre-1980)) of the same compound?
**A.** active; positive

**Q.** With `Cc1ccc2cc3c(ccc4ccccc43)c3c2c1CC3=O` as the compound, how does the mutagenic call (Species/Cell Type: Chinese hamster lung (V79) cells, Assay Type: Forward gene mutation at the HPRT or ouabain locus, Assay Code: V79+, Evaluation Type: Evaluation A (Pre-1980)) read?
**A.** active; positive

**Q.** What about the call (Species/Cell Type: Nonhuman, Assay Code: CCGT, Evaluation Type: Evaluation A (Pre-1980)) of the same compound?
**A.** no conclusion

**Q.** And the mutagenic call [7]?
**A.** active; positive

**Q.** `CC(O)c1ccccc1` (stereo unspecified) was tested. Which mutagenic call (Species/Cell Type: Escherichia coli polA (W3119 vs P3478), Assay Type: Rec-assay, DNA effects (bacterial DNA repair), Assay Code: RE1T, Evaluation Type: Evaluation A (Pre-1980)) did it give?
**A.** no conclusion

**Q.** How did the mutagenic call (Species/Cell Type: Salmonella typhimurium, Assay Type: Forward and reverse gene mutation, host-mediated assay, Assay Code: HMAT, Evaluation Type: Evaluation A (Pre-1980)) turn out when `COc1cc(C(=O)CCN2CCCC2)ccc1O` was run?
**A.** no conclusion

**Q.** How did the mutagenic call (Species/Cell Type: Mouse (C3H/10T1/2) cells, Assay Type: Cell transformation, Assay Code: CTH-, Evaluation Type: Evaluation A (Pre-1980)) turn out when `CCN(CC)CCOc1ccc2c(c1)C(=O)c1cc(OCCN(CC)CC)ccc1-2` was run?
**A.** inactive; negative

**Q.** And the mutagenic call (Species/Cell Type: Nonhuman, Assay Type: Sister-chromatid exchange (SCE) in vitro, Assay Code: SC2-, Evaluation Type: Evaluation A (Pre-1980))?
**A.** inactive; negative

**Q.** And the mutagenic call (Species/Cell Type: Nonhuman, Assay Type: Sister-chromatid exchange (SCE) in vitro, Assay Code: SC2T, Evaluation Type: Evaluation B (Post-1980))?
**A.** no conclusion

**Q.** And the mutagenic call [8]?
**A.** active; positive

**Q.** `O=Nc1ccc2ccc3cccc4ccc1c2c34` was tested. Which mutagenic call [9] did it give?
**A.** active; positive

**Q.** How did the mutagenic call (Species/Cell Type: Mammalian polychromatic erythrocytes, Assay Type: Micronucleus test, chromosome aberrations, Assay Code: MNT+, Evaluation Type: Evaluation A (Pre-1980)) turn out when `CC[C@]1(O)C[C@@H]2CN(CCc3c([nH]c4ccccc34)[C@@](C(=O)OC)(c3cc4c(cc3OC)N(C)[C@H]3[C@@](O)(C(=O)OC)[C@H](OC(C)=O)[C@]5(CC)C=CCN6CC[C@]43[C@@H]65)C2)C1` was run?
**A.** active; positive

**Q.** And the mutagenic call (Species/Cell Type: Mammalian polychromatic erythrocytes, Assay Type: Micronucleus test, chromosome aberrations, Assay Code: MNT+, Evaluation Type: Evaluation B (Post-1980))?
**A.** active; positive

**Q.** What about the mutagenic call (Species/Cell Type: Mouse, Sex: Male, Assay Type: Sperm morphology, Assay Code: SPI+, Evaluation Type: Evaluation A (Pre-1980)) of the same compound?
**A.** active; positive

**Q.** And the mutagenic call (Species/Cell Type: Neurospora crassa, Assay Type: Aneuploidy, chromosome aberrations, Assay Code: NEN-, Evaluation Type: Evaluation A (Pre-1980))?
**A.** inactive; negative

**Q.** How did the mutagenic call [7] turn out when `c1ccc2c(c1)ccc1cc3ccc4ccccc4c3cc12` was run?
**A.** active; positive

**Q.** `CCC(C)I` (stereo unspecified) was tested. Which mutagenic call [10] did it give?
**A.** active; positive

**Q.** With `O.O.O.[Co]` as the compound, how does the mutagenic call [3] read?
**A.** active; positive

**Q.** `C/C=C(/C)C(=O)O[C@@H]1CCN2CC=C(COC(=O)[C@@](O)([C@H](C)O)C(C)(C)O)[C@H]12` was tested. Which mutagenic call [5] did it give?
**A.** active; positive

**Q.** `CN(C)CCOc1ccc2c(c1)CC/C(=C\c1ncc([N+](=O)[O-])n1C)C2=O` was tested. Which mutagenic call (Species/Cell Type: Neurospora crassa, Assay Type: Forward gene mutation, Assay Code: NEF+, Evaluation Type: Evaluation A (Pre-1980)) did it give?
**A.** active; positive

**Q.** What about the mutagenic call (Species/Cell Type: Neurospora crassa, Assay Type: Reverse gene mutation, Assay Code: NER+, Evaluation Type: Evaluation A (Pre-1980)) of the same compound?
**A.** active; positive

**Q.** Which results are given for `C=CCc1ccccc1O`?
**A.** mutagenic call (Species/Cell Type: Human lymphocytes, Assay Type: Sister-chromatid exchange (SCE) in vitro, Assay Code: SCLT, Evaluation Type: Evaluation B (Post-1980)): no conclusion; mutagenic call (Species/Cell Type: Human, Assay Type: Sister-chromatid exchange (SCE) in vitro, Assay Code: SC1T, Evaluation Type: Evaluation B (Post-1980)): no conclusion

**Q.** For `[Cl-].[Cl-].[NH2-].[NH2-].[NH2-].[Pt+2]`, which mutagenic call [9] is on record?
**A.** active; positive

**Q.** Which mutagenic call (Species/Cell Type: Arabidopsis species, Assay Type: Gene mutation, Assay Code: ARM+, Evaluation Type: Evaluation A (Pre-1980)) does the source give for `C1O[C@@H]1[C@@H]1CO1` here?
**A.** active; positive

**Q.** And the mutagenic call (Species/Cell Type: Schizosaccharomyces pombe, Assay Type: Reverse gene mutation, Assay Code: YEZ+, Evaluation Type: Evaluation A (Pre-1980))?
**A.** active; positive

**Q.** And the mutagenic call (Species/Cell Type: Zea mays (corn), Assay Type: Gene mutation, Assay Code: ZEM+, Evaluation Type: Evaluation A (Pre-1980))?
**A.** active; positive

**Q.** How did the mutagenic call (Species/Cell Type: Arabidopsis species, Assay Type: Gene mutation, Assay Code: ARM-, Evaluation Type: Evaluation A (Pre-1980)) turn out when `Nc1ccc(S(=O)(=O)Nc2nccs2)cc1` was run?
**A.** inactive; negative

**Q.** With `C=C1C/C(=C/C)C(=O)O[C@@H]2CCN3CC=C(COC(=O)[C@]1(C)O)[C@H]23` as the compound, how does the mutagenic call [2] read?
**A.** active; positive

**Q.** Which mutagenic call [10] does the source give for `CC(C)(C)I` here?
**A.** active; positive

**Q.** How did the mutagenic call [3] turn out when `[Cl][Sb]([Cl])([Cl])([Cl])[Cl]` was run?
**A.** active; positive

**Q.** With `Nc1ccc2ccc3cccc4ccc1c2c34` as the compound, how does the mutagenic call [7] read?
**A.** active; positive

**Q.** For `CN1C(C(=O)Nc2ccccn2)=C(O)c2ccccc2S1(=O)=O`, which mutagenic call [4] is on record?
**A.** active; positive

**Q.** With `CC1CC2OC(=O)C(C)C2CC2(C)C(O)OC(O)CC12` (stereo unspecified) as the compound, how does the mutagenic call [8] read?
**A.** active; positive

**Q.** How did the mutagenic call (Species/Cell Type: Allium cepa, Assay Type: Chromosome aberrations, Assay Code: ALC+D, Dose Response: With dose response, Evaluation Type: Evaluation A (Pre-1980)) turn out when `CCCOc1nc2c(c(=O)n(C)c(=O)n2C)n1C` was run?
**A.** active; positive

**Q.** With `CC(Br)CBr` (stereo unspecified) as the compound, how does the mutagenic call [5] read?
**A.** active; positive

**Q.** Which mutagenic call (Species/Cell Type: Mammalian polychromatic erythrocytes, Assay Type: Micronucleus test, chromosome aberrations, Assay Code: MNT-, Evaluation Type: Evaluation B (Post-1980)) does the source give for `COCCOC(C)=O` here?
**A.** inactive; negative

**Q.** Which results are given for `NC(Cc1ccc(F)cc1)C(=O)O` (stereo unspecified)?
**A.** mutagenic call (Species/Cell Type: Aspergillus nidulans, Assay Type: Aneuploidy, chromosome aberrations, Assay Code: ASN+, Evaluation Type: Evaluation A (Pre-1980)): active; positive; mutagenic call (Species/Cell Type: Aspergillus nidulans, Assay Type: Mitotic recombination, Assay Code: ASG-, Evaluation Type: Evaluation A (Pre-1980)): inactive; negative; mutagenic call (Species/Cell Type: Neurospora crassa, Assay Type: Aneuploidy, chromosome aberrations, Assay Code: NEN+, Evaluation Type: Evaluation A (Pre-1980)): active; positive; mutagenic call (Species/Cell Type: Saccharomyces cerevisiae, Assay Type: Aneuploidy, chromosome aberrations, Assay Code: YEN+, Evaluation Type: Evaluation A (Pre-1980)): active; positive; mutagenic call (Species/Cell Type: Saccharomyces cerevisiae, Assay Type: Forward gene mutation, Assay Code: YEF+, Evaluation Type: Evaluation A (Pre-1980)): active; positive; mutagenic call [6]: active; positive; mutagenic call (Species/Cell Type: Saccharomyces cerevisiae, Assay Type: Reverse gene mutation, Assay Code: YER+, Evaluation Type: Evaluation A (Pre-1980)): active; positive

Reference: PubChem BioAssay AID1259408 (Genetic Toxicology Data Bank (GENE-TOX), 2018)
